According to patent US20180326101A1, “COMPOUND AND PHARMACEUTICAL COMPOSITION FOR TARGETED DRUG DELIVERY” (SeeCure Taiwan Co., Ltd., priority 2017, published 2018):

Target: T1, XC transporter (Homo sapiens, UniProt Q9UPY5)
T1 construct: endogenous in cells; host or cells: U251 cell line
T1 sequence (Q9UPY5 1-501): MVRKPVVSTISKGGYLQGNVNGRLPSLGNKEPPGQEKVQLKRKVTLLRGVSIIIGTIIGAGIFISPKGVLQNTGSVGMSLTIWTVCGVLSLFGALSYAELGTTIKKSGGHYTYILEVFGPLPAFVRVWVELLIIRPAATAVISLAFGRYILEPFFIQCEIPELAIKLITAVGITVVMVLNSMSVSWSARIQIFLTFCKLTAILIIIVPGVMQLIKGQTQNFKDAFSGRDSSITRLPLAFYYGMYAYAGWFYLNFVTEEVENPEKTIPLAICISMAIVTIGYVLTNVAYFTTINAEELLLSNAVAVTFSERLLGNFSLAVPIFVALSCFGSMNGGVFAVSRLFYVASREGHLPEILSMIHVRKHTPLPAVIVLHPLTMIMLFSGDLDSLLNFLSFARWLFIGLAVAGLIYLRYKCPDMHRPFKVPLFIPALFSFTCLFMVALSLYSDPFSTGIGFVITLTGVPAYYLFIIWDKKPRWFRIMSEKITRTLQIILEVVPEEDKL
T1 sequence (P08195 1-529 partner): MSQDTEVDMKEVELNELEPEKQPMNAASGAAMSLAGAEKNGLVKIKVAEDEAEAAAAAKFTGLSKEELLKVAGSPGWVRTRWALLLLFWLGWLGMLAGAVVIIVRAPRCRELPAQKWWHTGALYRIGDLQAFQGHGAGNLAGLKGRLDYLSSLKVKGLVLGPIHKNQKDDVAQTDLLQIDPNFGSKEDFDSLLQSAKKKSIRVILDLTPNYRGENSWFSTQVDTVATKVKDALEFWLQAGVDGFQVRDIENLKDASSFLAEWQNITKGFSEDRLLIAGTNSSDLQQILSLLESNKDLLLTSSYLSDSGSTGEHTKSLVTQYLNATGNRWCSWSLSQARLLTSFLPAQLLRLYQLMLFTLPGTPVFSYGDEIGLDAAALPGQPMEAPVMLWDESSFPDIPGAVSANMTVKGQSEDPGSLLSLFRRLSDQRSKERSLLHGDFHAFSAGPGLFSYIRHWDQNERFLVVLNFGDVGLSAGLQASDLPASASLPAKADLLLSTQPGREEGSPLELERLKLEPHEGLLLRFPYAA
Experiment: Blocking studies of cellular uptake with sulfasalazine (SAS) or cysteine
Format: cell-based
Settings: U251 cells, 2 hours incubation
Procedure: The cellular uptake of the ^99mTc-SAC-A and the ^99mTc-SAC-B compounds were performed using an U251 cell line. The cells were planted onto tissue culture plates at a concentration of 350,000 cells per well for the uptake and blocking studies. The cells were cultured in Eagle's MEM with Earle's BSS (90%) and fetal bovine serum (10%) under standard culture conditions (37° C., 95% humidified air and 5% CO2). After seeding, the cells were incubated at 37° C. for 48 hours to allow for cell attachment and growth. After reaching approximately 70% confluency of cells, the cells are ready for use in the cellular uptake/blocking experiments.
Specifically, upon reaching 70% cell confluency, the growth media were aspirated and the cells were washed twice with phosphate buffered saline (PBS). Serum-free media and the ^99mTc-SAC-A compound or ^99mTc-SAC-B compound obtained above were respectfully added to the each of the wells for performing the cellular uptake experiment. For the blocking studies, the cells were pre-treated with 500 μM and 1000 μM of sulfasalazine (SAS; a XC transporter specific inhibitor) or 500 μM and 1000 μM of cysteine (a competitive inhibitor) for 30 minutes prior to the addition of the ^99mTc-SAC-A or ^99mTc-SAC-B compounds. […] After 2 hours, the cells in each of the wells are washed with PBS, the cells are then collected and its radioactivity were counted using a gamma counter. […]

For `N[C@@H](CS[C@@H](CC(=O)O)C(=O)O)C(=O)O` [SAC-B], the “cellular uptake when blocking agent cysteine (competitive inhibitor) was added” value (500 μM and 1000 μM cysteine pre-treatment 30 min) was “mostly inhibited” and the “cellular uptake when blocking agent SAS (XC transporter specific inhibitor) was added” value (500 μM and 1000 μM sulfasalazine pre-treatment 30 min) was “mostly inhibited”.
